According to BindingDB's records for doi:10.1021/jm00164a002 (Syntex Research, 1990):

Biological target: T1, Neutrophil elastase (Homo sapiens, UniProt P08246)
T1 sequence (P08246 whole entry): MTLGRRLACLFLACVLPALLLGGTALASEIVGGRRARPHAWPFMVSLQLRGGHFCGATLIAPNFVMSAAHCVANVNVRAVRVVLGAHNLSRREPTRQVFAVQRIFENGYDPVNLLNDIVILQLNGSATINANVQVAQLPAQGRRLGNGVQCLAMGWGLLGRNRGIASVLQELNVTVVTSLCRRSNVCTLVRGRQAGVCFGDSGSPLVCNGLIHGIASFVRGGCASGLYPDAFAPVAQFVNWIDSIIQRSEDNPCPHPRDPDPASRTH
Test: Component deacylation rate constant for interaction with human leukocyte elastase
Conditions: for kon: read-out: kon (M-1-s-1)

koff [s⁻¹]	kon [M⁻¹ s⁻¹]	Ki [nM]	SMILES
0.00141	1.51e+06		CCSc1nc2cccc(C)c2c(=O)o1
0.00138	39800	39.8	COC(=O)[C@@H](CC(C)C)Nc1nc2ccccc2c(=O)o1
0.000389	2290	159	COC(=O)[C@H](CC(C)C)Nc1nc2ccccc2c(=O)o1
0.00759	6920	1000	COc1cc2nc(SCc3c[nH]cn3)oc(=O)c2cc1OC
0.00316	389		O=c1oc(/C=C/c2ccccc2)nc2ccccc12
0.000794	20900		COc1cc(C)c2c(=O)oc(NC(C)C)nc2c1
0.000324	15100		CC(C)C[C@H](NC(=O)C1CCCN1c1nc2ccccc2c(=O)o1)C(N)=O (some centres not stated)
1.78e-05	229		Cc1cc(N)cc2nc(NC(C)C)oc(=O)c12
0.000851	1900		COC(=O)[C@H](Cc1ccc(O)cc1)Nc1nc2ccccc2c(=O)o1
1.51e-05	2570	6.31	Cc1cc(C)c2c(=O)oc(NC(C)C)nc2c1
7.41e-05	112		CCC(C)CNc1nc2cccc(C)c2c(=O)o1 (configuration not stated)
0.000229	11000		CC(C)C[C@H](NC(=O)[C@@H]1CCCN1c1nc2ccccc2c(=O)o1)C(=O)NCC(N)=O
0.024	24000		CCc1cccc2c(=O)oc(NC(C)C)nc12
	100000		CCSc1nc2cc(OC)c(OC)cc2c(=O)o1
1.12e-05	7080		Cc1cccc2nc(OCC(C)C)oc(=O)c12
0.00371	129000	31.6	Cc1cccc2nc(C(F)(F)F)oc(=O)c12
0.00182	2820		CCCCNc1nc2cc(N)ccc2c(=O)o1
1.41e-05	2880		CCOc1nc2cc(N(C)C)ccc2c(=O)o1
0.0123	5750	2000	COc1cc2nc(SCc3ccccc3)oc(=O)c2cc1OC

koff [s⁻¹]	kon [M⁻¹ s⁻¹]	Ki [nM]	SMILES
0.00371	5010	794	CCCC(C)Nc1nc2cccc(C)c2c(=O)o1 (configuration not stated)
	20000		CC(C)Cc1nc2ccccc2c(=O)o1
6.61e-05	347000		C/C=C/c1cccc2nc(OCC)oc(=O)c12
	2e+06		CCSc1nc2c(C)cccc2c(=O)o1
7.08e-05	309000		CCCc1cccc2nc(OCC)oc(=O)c12
	100000	159	O=c1oc(C(F)(F)F)nc2ccccc12
0.00468	1e+07		CCOc1nc2cccc(C(Br)Br)c2c(=O)o1
0.017	12600		CCCNC(=O)Nc1ccc2c(=O)oc(NC(C)C)nc2c1
0.00562	7760	794	CCC(CC)Nc1nc2cccc(C)c2c(=O)o1
	1e+06	159	CCSc1nc2ccc(C)cc2c(=O)o1
0.000129	102		Cc1cc(N(C)C)cc2nc(NC(C)C)oc(=O)c12
0.000537	14400	39.8	NC(=O)[C@H](Cc1ccccc1)NC(=O)[C@@H]1CCCN1c1nc2ccccc2c(=O)o1
0.00191	1120	1590	O=c1oc(NCCc2ccccc2)nc2ccccc12
0.000355	251000		CSc1nc2cccc(C)c2c(=O)o1
0.000479	1000		CC(C)Nc1nc2cc(N(C)C)ccc2c(=O)o1
0.00224	2570	794	CCOC(=O)[C@H](C)Nc1nc2ccccc2c(=O)o1
	10000		CC(C)(C)c1nc2ccccc2c(=O)o1
0.000977	151		CC(C)CN(CC(C)C)c1nc2ccccc2c(=O)o1
	2000		Cc1nc2c(N)cccc2c(=O)o1

koff [s⁻¹]	kon [M⁻¹ s⁻¹]	Ki [nM]	SMILES
0.00132	174		CC(=O)NCc1nc2ccccc2c(=O)o1
	10000	100	O=c1oc(C(F)(F)C(F)(F)C(F)(F)F)nc2ccccc12
0.00038	1200		NC(=O)[C@H](Cc1ccccc1)Nc1nc2ccccc2c(=O)o1
	1260		COC(=O)[C@H](CC(C)C)NC(=O)[C@H](CC(C)C)Nc1nc2cc(C)cc(C)c2c(=O)o1
0.00123	269	5010	CCCCN(CCCC)c1nc2ccccc2c(=O)o1
0.000182	646		CCCc1cc(N(C)C)cc2nc(NC(C)C)oc(=O)c12
	10000	1590	CCSc1nc2ccc(NC(C)=O)cc2c(=O)o1
		631	Cc1cccc2c(=O)oc(NC(C)C)nc12
		31600	Cc1ccc2nc(C)oc(=O)c2c1
		100	O=c1oc(C(F)(F)C(F)(F)F)nc2ccccc12
0.000537	129000		CCCCNc1nc2cccc(CC)c2c(=O)o1 [2-Butylamino-5-ethyl-benzo[d][1,3]oxazin-4-one]
		79.4	CCCCNc1nc2ccccc2c(=O)o1 [2-Butylamino-benzo[d][1,3]oxazin-4-one]
		1.58	Cc1cccc2nc(NC(C)C)oc(=O)c12 [2-Isopropylamino-5-methyl-benzo[d][1,3]oxazin-4-one]
0.00309	58900		CC(C)Nc1nc2ccccc2c(=O)o1 [2-Isopropylamino-benzo[d][1,3]oxazin-4-one]
	10000		O=c1oc(-c2ccccc2)nc2ccccc12 [2-Phenyl-4H-3,1-benzoxazin-4-one (3)]
		100	CCCNc1nc2ccccc2c(=O)o1 [2-Propylamino-benzo[d][1,3]oxazin-4-one]
0.151	4900		CNc1nc2cccc(C)c2c(=O)o1 [5-Methyl-2-methylamino-benzo[d][1,3]oxazin-4-one]
0.000339	56200	6.31	CCCNc1nc2cccc(C)c2c(=O)o1 [5-Methyl-2-propylamino-benzo[d][1,3]oxazin-4-one]
